Patent publication US4091006A, “Esters of 3-hydroxyindone compounds” (priority 1975, dated 1978)

Experiments:
[1] = tested on: adults and nymphal stages of the two-spotted mite; experiment: Mite Foliage Spray Test; type: in vivo, Tetranychus urticae (Koch); set-up: key: 1: no mortality; 3: an approximately 50% mortality; 5: 100% mortality; conditions: 4 days
From the text: (§1) The test procedures were as follows:
(§2) Compositions were rated on the basis of percent kill with a rating of 1 indicating no mortality; 3 signifying an approximately 50% mortality and 5 indicating 100% mortality at the indicated dosage.

[2] = tested on: egg of the two-spotted mite; experiment: Mite Ovicide Test; type: in vivo, Tetranychus urticae (Koch); set-up: key to Mite Ova rating: 1: no mortality; 3: an approximately 50% mortality; 5: 100% mortality; conditions: spray on eggs, 4 days
From the text: as §1
The plants were allowed to dry thoroughly.
as §2

[3] = tested on: eggs of the two-spotted mite; experiment: Fumigant toxicity, Method 1 (deposit in pie plate); type: in vivo; conditions: deposit approx. 160 μg per square cm, 4 days
Procedure: (§3) Two methods were used to evaluate fumigant properties:
Method 1: Fifty mg. of each compound were dissolved in 5 ml. of acetone and poured into a 20 cm. (bottom diameter) Pyrex No. 210 pie plate. The acetone was allowed to evaporate leaving a deposit of approximately 160 μg. per square cm. The plate was then placed in the bottom of a 50 pound metal lard container (about 30 cm. in diameter and 34 cm. high). Two excised bean plants, held in a 250 ml. Erlenmeyer flask containing 100 ml. of tap water and infested with eggs of the two-spotted mite, were placed in the center of the pie plate. The container was held in the insectary (temperature 80±5° F., 50±5% R. H.) for four days before mortality determinations were made.

[4] = tested on: egg forms of the two-spotted mite; experiment: Fumigant toxicity, Method 2 (treated plants near untreated infested plants); type: in vivo; conditions: 500 ppm dip, 4 days
Procedure: as §3
Method 2: Excised bean plants infested with egg forms of the two-spotted mite were dipped in an aqueous preparation (500 ppm) of the test compound. The treated plants were transferred to 250 ml. Erlenmeyer flasks containing 100 ml. of tap water. Four flasks holding treated plants were evenly spaced around a similar flask in which were placed untreated mite-infested plants so that the leaves of the treated foliage were in close proximity (1-3 inches) to the untreated plants. Four days later mortality determinations were made.

[5] = tested on: Bean; experiment: Phytotoxicity, bean; conditions: 2500 ppm, 10 days
Procedure: (§4) Experiments were also conducted to determine the phytotoxicity of representative enol ester compositions with respect to healthy fresh plants. […] The test plants were sprayed in accordance with the procedure described above for the Mite Foliage Spray Test so as to deliver approximately 100 milliliters of test solution to the leaves of each plant tested. The sprayed plants and controls were set aside for approximately 1 hour to allow the solutions to dry and were then placed in the greenhouse. After 10 days the plants were visually inspected to determine the extent of foliage injury. A rating of 1 indicates no perceptible injury; 5 indicates the plant was dead and ratings of 2, 3 and 4 indicate intermediate degrees of injury based upon the number and extent to which leaves were injured.

[6] = tested on: Corn; experiment: Phytotoxicity, corn; conditions: 2500 ppm, 10 days
Procedure: as §4

[7] = tested on: Tomato; experiment: Phytotoxicity, tomato; conditions: 2500 ppm, 10 days
Procedure: as §4

[8] = tested on: Cotton; experiment: Phytotoxicity, cotton; conditions: 2500 ppm, 10 days
Procedure: as §4

[9] = tested on: Perennial rye grass, crabgrass, red root pigweed, mustard; experiment: Preliminary Herbicide Seed Germination Test; conditions: each rated 1 (no injury) to 5 (no seedlings emerged)
From the text: The thus-prepared stock suspension contained 0.5 percent by weight of compound. The test concentrations employed in the tests described hereinbelow were obtained by diluting the stock suspension with water. The test procedures were as follows:
The following seeds were used in this test:
Crabgrass -- Digitaria san-
Mustard -- Brassica pincea var.
Each of above mixtures is rolled separately in 5 gallon containers for approximately one-half hour on ball mill to insure uniform mixing of seeds and soil. For each compound four 3-inch pots are filled with soil to within 11/2 inches of top of pots. To 2 of these pots are added 70 cc. of Mixture I. To the remaining 2 pots are added 70 cc. of Mixture II. The seed-soil mixture is tamped firmly, and the pots are removed to the greenhouse and watered lightly. About 2 hours after planting, 25 milliliters of the test formulation were added to each of 2 pots for each soil-seed mixture; i.e., one replicate of each seed mixture per concentration. An equal volume of a water solution containing acetone and an emulsifier in the same concentration as the herbicidal mixture but without the candidate herbicide is also added to each of the soil-seed mixtures. These pots are used as check or control units. The test compounds are formulated by standard procedure of solution in acetone, addition of an emulsifier, and dilution with water. Tests were conducted on all compositions at low concentration (100 ppm.). Certain compositions were also tested at high concentration (1000 ppm). The pots were held in the greenhouse and watered lightly until results were taken. Ten to twelve days after application of chemical, injury is noted for each species by comparing treated vs. untreated pots. Ratings are made at both the high and the low concentrations (1000 ppm and 100 ppm) according to the following designations:
4 = few seedlings emerged and/or very severe stunting
3 = moderate reduction in stand and/or moderate stunting
2 = very slight reduction in stand and/or slight stunting
1 = no injury; seedlings appear no different with respect to stand or growth than untreated controls
Accordingly, the maximum rating for one test seed species tested at both high and low concentration is 10 and the maximum possible total preemergence rating is 40 (10 for each of the four test seed species). […] In some tests the crabgrass experiment was omitted. In these tests the maximum total rating for species tested at both high and low concentrations is 30 and 15 for species tested only at low concentrations.

[10] = tested on: two-spotted mite; experiment: Small scale field tests, mite control on Tendergreen bean plants; type: in vivo, Tetranychus urticae (Koch)
Procedure: Selected enol ester compositions were evaluated in small scale field tests to determine whether the excellent miticidal properties observed in greenhouse testing would be obtained under actual conditions of field use.
In Test I 500 ppm aqueous dispersions were prepared as described above. In tests II and III various dilutions of the test compounds ranging from 125 ppm to 1000 ppm were prepared and used. In each case the test dispersions were applied to a minimum of two replicate test plots measuring five feet in length and containing healthy young Tendergreen bean plants which had previously been infested with two-spotted mite (Tetranychus urticae (Koch)). Dispersions of the test compounds at each concentration level were applied to individual replicate plots using 1/2 gallon garden sprayers equipped with spray nozzles to apply approximately 250 ml. of test solution to each replicate. The effectiveness of the treatment was determined at intervals following application, by microscopic examination of five leaves selected at random from each replicate plot. The degree of effectiveness for each leaf was rated on a scale of from 1 to 5 with 1 indicating no control in reference to a standard sprayed with a mixture of solution less test compound and 5 indicating complete control. The results obtained from inspection of sample leaves were then averaged to give a numerical indication of the degree of control for each compound tested at the concentration applied.

[11] = rating/maximum 20: 100 ppm only, four species
[12] = rating/maximum 15: 100 ppm only, crabgrass omitted
[13] = rating/maximum 40: 100 and 1000 ppm, four species, 10-12 days

Row | Compound | Mite Adult rating [1] | Mite Ova rating [2] | Fumigant Toxicity Method 1 [3] | Fumigant Toxicity Method 2 [4] | Phytotoxicity Rating, Bean [5] | Phytotoxicity Rating, Corn [6] | Phytotoxicity Rating, Tomato [7] | Phytotoxicity Rating, Cotton [8] | Herbicide (total preemergence rating) [9, 11] | Herbicide (total preemergence rating) [9, 12] | Herbicide (total preemergence rating) [9, 13] | Average mite control rating, 1st Reading ([10]; Test I, 500 ppm, 4 days, scale 1 (no control) to 5 (complete control)) | Average mite control rating, 2nd Reading ([10]; Test I, 500 ppm, 8 days, scale 1 to 5) | Average mite control rating, 1st Reading ([10]; Test II, 250 ppm, 3 days, scale 1 to 5) | Average mite control rating, 2nd Reading ([10]; Test II, 250 ppm, 7 days, scale 1 to 5) | Average mite control rating, 1st Reading ([10]; Test II, 500 ppm, 3 days, scale 1 to 5) | Average mite control rating, 2nd Reading ([10]; Test II, 500 ppm, 7 days, scale 1 to 5) | Average mite control rating, 1st Reading ([10]; Test II, 1000 ppm, 3 days, scale 1 to 5) | Average mite control rating, 2nd Reading ([10]; Test II, 1000 ppm, 7 days, scale 1 to 5)
1 | 2-(2',4',6'-Trimethylphenyl)-3-(neodecanoyloxy)indone | 5 (100% mortality) | 5 (100% mortality) | 1 | 1 | 2 | 2 | 1 | 1 | 10/20 | – | – | – | – | – | – | – | – | – | –
2 | 2-(2',5'-Dimethylphenyl)-3-(neodecanoyloxy)indone | 1 | 3 (an approximately 50% mortality) | – | – | 1 | 1 | 1 | 1 | 4/20 | – | – | – | – | – | – | – | – | – | –
3 | 2-(2'-Methylphenyl)-3-(neodecanoyloxy)indone | 1 | 1 | – | – | 1 | 1 | 1 | 1 | 4/20 | – | – | – | – | – | – | – | – | – | –
4 | CCCCC(CC)COC(=O)OC1=C(c2c(C)cc(C)cc2C)C(=O)c2ccccc21 (stereo not drawn) [2-(2',4',6'-Trimethylphenyl)-3-(2-ethylhexyloxycarbonyloxy)indone] | 5 (100% mortality) | 5 (100% mortality) | 1 | 1 | 1 | 2 | 1 | 1 | 15/20 | – | – | – | – | – | – | – | – | – | –
5 | COC(=O)CCC(=O)OC1=C(c2c(C)cc(C)cc2C)C(=O)c2ccccc21 [2-(2',4',6'-Trimethylphenyl)-3-(3-methoxycarbonylpropionyloxy)indone] | 5 (100% mortality) | 5 (100% mortality) | 1 | 1 | 1 | 1 | 1 | 1 | – | 15/15 | – | – | – | – | – | – | – | – | –
6 | Cc1cc(C)c(C2=C(OC(=O)CCCCl)c3ccccc3C2=O)c(C)c1 [2-(2',4',6'-Trimethylphenyl)-3-(4-chlorobutyryloxy)indone] | 5 (100% mortality) | 5 (100% mortality) | 1 | 1 | 1 | 2 | 2 | 2 | – | 14/15 | – | – | – | – | – | – | – | – | –
7 | Cc1cc(C)c(C2=C(OC(=O)OC(C)C)c3ccccc3C2=O)c(C)c1 [2-(2',4',6'-Trimethylphenyl)-3-(Isopropoxycarbonyloxy)indone] | 5 (100% mortality) | 5 (100% mortality) | 5 (80-100% control) | 3 | – | – | – | – | 18/20 | – | – | – | – | – | – | – | – | – | –
8 | CC(=O)OC1=C(c2c(C)cc(C)cc2C)C(=O)c2ccccc21 [2-(2',4',6'-Trimethylphenyl)-3-(acetoxy)indone] | 5 (100% mortality) | 5 (100% mortality) | 5 (80-100% control) | 5 (80-100% control) | – | – | – | – | – | – | 39/40 | – | – | – | – | – | – | – | –
9 | Cc1cc(C)c(C2=C(OC(=O)C3CCCCC3)c3ccccc3C2=O)c(C)c1 [2-(2',4',6'-Trimethylphenyl)-3-(cyclohexanoyloxy)indone] | 5 (100% mortality) | 5 (100% mortality) | 1 | 1 | 1 | 1 | 2 | 2 | – | – | 31/40 | – | – | – | – | – | – | – | –
10 | Cc1cc(C)c(C2=C(OC(=O)CC3C=CCC3)c3ccccc3C2=O)c(C)c1 (stereo not drawn) [2-(2',4',6'-Trimethylphenyl)-3-(cyclopent-2-en-1-ylacetoxy)indone] | 5 (100% mortality) | 5 (100% mortality) | 1 | 1 | 1 | 1 | 1 | 2 | – | 11/15 | – | – | – | – | – | – | – | – | –
11 | CCCCCCCCCCCCOC(=O)OC1=C(c2c(C)cc(C)cc2C)C(=O)c2ccccc21 [2-(2',4',6'-Trimethylphenyl)-3-(dodecyloxycarbonyloxy)indone] | 5 (100% mortality) | 5 (100% mortality) | 1 | 1 | 1 | 2 | 1 | 1 | 17/20 | – | – | – | – | – | – | – | – | – | –
12 | CC(C)(C)C(=O)OC1=C(c2c(Cl)cccc2Cl)C(=O)c2ccccc21 [2-(2',6'-Dichlorophenyl)-3-(pivaloyloxy)indone] | 5 (100% mortality) | 5 (100% mortality) | – | 3 | – | – | – | – | – | – | 30/40 | 3.5 | 4.0 | 2.3 | 3.7 | 3.0 | 3.3 | 3.3 | 4.7
